{
  "source": "paper PMC5974751",
  "about": "“NKp44-Derived Peptide Binds Proliferating Cell Nuclear Antigen and Mediates Tumor Cell Death” (Frontiers in Immunology, 2018)",
  "key": {"[1]": {"assay": "Initial toxicity studies in mice", "assay_type": "in vivo, mouse", "details": "5 mg/kg every 2 days for 3 weeks; data not shown", "procedure": "Initial toxicity studies have been performed with the 5 mg/kg dose injected into mice every 2 days for 3 weeks, and analysis of mouse weight and well-being was meticulously observed during this time. Also, livers, spleens, and lungs were harvested and weight."}, "[2]": {"test_system": "MDA-MB-231 breast adenocarcinoma cells", "assay": "PrestoBlue cell viability, MDA-MB-231", "assay_type": "cell-based, human", "details": "MDA-MB-231, PrestoBlue, 24 h; sigmoidal dose–response", "procedure": "(§1) Target cells (2.5 × 10^4 cells/well of a 48-well plate, Corning) were seeded and incubated in 37°C, 5% CO2 for 24 h in 0.5 ml of fresh complete DMEM (10% FBS) culture medium. According to molecular weight peptides were diluted from 8 to 2 µM with 5% FBS containing DMEM culture medium just before the incubation with the target cells. Medium was removed from each well, and 250 µl of diluted peptides was added and incubated for another 24 h at 37°C, 5% CO2. PrestoBlue (A13261, Invitrogen™) solution was prepared by diluting the dye 10-fold with complete DMEM. Medium was discarded from each well, and 250 µl of PrestoBlue solution was added to each well, shake gently and incubated at 37°C for another 1 h. Emission at 560 nm was measured in Premium Quad4 Monochromators plate reader (Tecan). Normalization was done relative to the appropriate control (DMEM or DMSO) to calculate the percentage of viable cells in each group. Selenite (25 µM) was used as a positive control ([52], [53])."}, "[3]": {"test_system": "MDA-MB-231 cells", "assay": "Flow cytometry based cell death assay (PI), MDA-MB-231", "parameters": "species or system human", "details": "MDA-MB-231, PI flow cytometry, 0–8 µM, 24 h", "procedure": "(§2) Peptides were diluted before the incubation with the target cells with free DMEM culture medium to 0–16 µM according to peptide molecular weight. For adding the peptides, 0.5 ml was removed from each well, and 0.5 ml of diluted peptides was added to a final volume of 1 ml, 5% FCS, duplicates. Peptides were incubated with target cells for 24 h, and then the medium was collected, adherent cells were removed with trypsin–EDTA (0.5 ml, 3 min, BI: 03-052-1B), 1 ml of complete medium was added to each well, and the medium was collected (final volume 2.5 ml, on ice). For the cell death assay, samples were then centrifuged (1,300 rpm, 4°C, 5 min), the medium was removed, fresh 1 ml 10% FCS was added, and then 1 µl of 1 mg/ml PI was added to each sample and incubated (15 min, on ice) with the target cells. Before analyzing the samples, samples were centrifuged (1,300 rpm, 4°C, 5 min), the medium was removed, and fresh 0.2 ml FCAS buffer (PBS 1×, 20% FCS, 0.5% NaN3) was added. Samples were then read and analyzed using BD FACSCanto™ II and FlowJo®. APIM peptide and camptothecin (CPT) were used as positive controls ([38], [54]–[56]). Specific cell death was calculated as following: Y = 100*((sample cell death − basal cell death)/(100 − basal cell death)). Basal cell death = % of PI positive cells following incubation in complete culture media."}, "[4]": {"test_system": "B16 melanoma cells", "assay": "PrestoBlue cell viability, B16", "assay_type": "cell-based, murine", "details": "24 h, sigmoidal dose–response", "procedure": "as §1"}, "[5]": {"test_system": "4T1 breast cancer tumor in BALB/C mice", "assay": "In vivo 4T1 tumor growth", "parameters": "species or system mouse", "details": "for tumor growth suppression vs vehicle, significance on days 19 and 23 / tumor growth suppression vs vehicle, significance on day 28: R11-NLS-pep8 5 mg/kg IV, 5-FU 30 mg/kg; for tumor growth suppression vs vehicle, significance on days 19 and 23: every 2 days, treatment stopped day 22, unpaired t-test, one-tail; for tumor growth suppression vs vehicle, significance on day 28: treatment stopped day 22", "procedure": "Seven-week-old female BALB/C mice with an average body weight of 20 g were used in this experiment. 4T1 cells suspended at a density of 2 × 10^5 cells/50 μl, in serum-free DMEM containing 40% Geltrex, were injected into the left mammary fat pad, and allowed to develop tumors. After 5 days, mice were randomly divided into three groups, one group was treated with R11-NLS-pep8, at a dose of 5 mg/kg, intravenously (IV), other group with 5-FU, at a dose of 30 mg/kg, (IV) and mice treated with a 1.44% DMSO/150 mM NaCl solution, (IV) served as the vehicle control. Treatment was continued following every 2 days at least for 4 weeks. Each week, tumor size was evaluated by measuring their length (L) and width (W), using a Caliper device and tumor volume (V) was calculated according to the equation: V = LW^2/2. After 4 weeks of treatment, mice were euthanized, and tumors volume and weight were measured.\nFigure 5 Effect of R11-NLS-pep8 on 4T1 and B16 in vivo tumor models. (A) 4T1 cells or (C) B16 cells were injected into the nipple pad or flank of young BALB/C females or C57BL/6 males, respectively (day 0). At day 5, mice were divided to subgroups according to mice weight. Treatment was started at day 5 (4T1) or day 6 (B16) and end at day 22. Treatment was administrated every 2 days three times per week; 5-FU was administered intraperitoneally (IP) while R11-NLS-pep8 was administrated intravenously (4T1) or IP (B16). Tumor volume (mm^3) was measured at days as indicated on graphs mean tumor volume (mm^3), (B) 4T1 and (D) B16 were normalized to vehicle/day to show the effect of treatment on tumor volume per day. Statistical analysis was performed on original tumor volume data. Unpaired t-test; one-tail, *p < 0.05."}, "[6]": {"test_system": "HepG2 hepatocellular carcinoma cells", "assay": "PrestoBlue cell viability, HepG2", "assay_type": "cell-based, human", "details": "24 h, sigmoidal dose–response", "procedure": "as §1"}, "[7]": {"test_system": "PANC-1 pancreas ductal adenocarcinoma cells", "assay": "PrestoBlue cell viability, PANC-1", "assay_type": "cell-based, human", "details": "PANC-1, PrestoBlue, 24 h; sigmoidal dose–response", "procedure": "as §1"}, "[8]": {"test_system": "B16 melanoma tumor in C57BL/6 mice", "assay": "In vivo B16 tumor growth", "parameters": "species or system mouse", "details": "R11-NLS-pep8 5 mg/kg IP, 5-FU 30 mg/kg IP, treatment stopped day 22", "procedure": "Seven-week-old male C57BL/6 mice with an average body weight of 23 g were used in the other experiment. B16 cells suspended at a density of 0.5 × 10^6 cells/100 μl, in serum-free DMEM containing 40% Geltrex, were injected subcutaneously in the left dorsal flank, and allowed to develop tumors. After 6 days, mice were randomly divided into three groups, one group was treated with R11-NLS-pep8, at a dose of 5 mg/kg, intraperitoneally (IP), other group with 5-FU, at a dose of 30 mg/kg, (IP) and mice treated with a 1.44% DMSO/150 mM NaCl solution, (IP) served as the vehicle control. Treatment was done three times a week at least for 4 weeks. Each week, tumors size was evaluated by measuring their length (L) and width (W), using a Caliper device and tumor volume (V) was calculated according to the equation: V = LW^2/2. After 3 weeks of treatment, mice were euthanized, and tumors volume and weight were measured.\nFigure 5 Effect of R11-NLS-pep8 on 4T1 and B16 in vivo tumor models. (A) 4T1 cells or (C) B16 cells were injected into the nipple pad or flank of young BALB/C females or C57BL/6 males, respectively (day 0). At day 5, mice were divided to subgroups according to mice weight. […] Tumor volume (mm^3) was measured at days as indicated on graphs mean tumor volume (mm^3), (B) 4T1 and (D) B16 were normalized to vehicle/day to show the effect of treatment on tumor volume per day. […]"}, "[9]": {"test_system": "4T1 cells", "assay": "Flow cytometry based cell death assay (PI), 4T1", "parameters": "species or system murine", "details": "4T1, PI flow cytometry, 0–8 µM, 24 h", "procedure": "as §2"}, "[10]": {"test_system": "B16 cells", "assay": "Flow cytometry based cell death assay (PI), B16", "parameters": "species or system murine", "details": "0–8 µM, 24 h", "procedure": "as §2"}, "[11]": {"test_system": "pep8–PCNA interaction (recombinant PCNA)", "assay": "ELISA-based inhibition of biotin-pep8 binding to PCNA", "parameters": "species or system human", "details": "inhibitor 25 µg/ml 1 h, then biotin-pep8 5 µg/ml 1 h, room temperature, O.D. 650 nm", "procedure": "To determine the ability of APIM-based peptide to suppress NKp44-pep8 interaction with PCNA, ELISA plates were coated with recombinant PCNA followed by PBS–skim milk added as described earlier. Plates were then incubated with 25 µg/ml of R11-NLS-pep8 (positive control), R11-NLS-pep8short (negative control), and APIM for 1 h at room temperature followed by addition of biotin-pep8 (5 µg/ml) without washing for 1 h at room temperature. Biotin-pep8 binding to PCNA was detected using streptavidin conjugated HRP (1 h at 1:500 dilution 100 μl/well). Following washing, TMB (100 μl/well DAKO, S1599) was added. O.D. was read at 650 nm (Thermo Electron Corporation Multiskan Spectrum)."}},
  "note": "Peptide text beside a SMILES is read from it.",
  "data": [
    {"smiles": "CC[C@H](C)[C@H](NC(=O)[C@H](CCCNC(=N)N)NC(=O)[C@H](CCCNC(=N)N)NC(=O)[C@H](CCCNC(=N)N)NC(=O)[C@H](CCCNC(=N)N)NC(=O)[C@H](CCCNC(=N)N)NC(=O)[C@H](CCCNC(=N)N)NC(=O)[C@H](CCCNC(=N)N)NC(=O)[C@H](CCCNC(=N)N)NC(=O)[C@H](CCCNC(=N)N)NC(=O)[C@H](CCCNC(=N)N)NC(=O)[C@H](CCCNC(=N)N)NC(C)=O)C(=O)N[C@@H](CCCCN)C(=O)N[C@@H](CCCCN)C(=O)N[C@@H](CCCCN)C(=O)N[C@@H](CCCNC(=N)N)C(=O)N[C@@H](CCCCN)C(=O)N[C@@H](Cc1c[nH]c2ccccc12)C(=O)N[C@@H](CCC(=O)O)C(=O)N[C@@H](C)C(=O)N[C@@H](CO)C(=O)N[C@@H](C)C(=O)N[C@@H](CC(C)C)C(=O)N[C@H](C(=O)N[C@@H](CS)C(=O)N[C@H](C(=O)N[C@@H](CCCNC(=N)N)C(=O)N[C@@H](CC(C)C)C(=O)N[C@H](C(=O)N[C@H](C(=O)N[C@@H](CO)C(=O)N[C@@H](CO)C(=O)N[C@@H](CCCCN)C(=O)N1CCC[C@H]1C(=O)N[C@@H](CCCNC(=N)N)C(=O)N[C@H](C(=O)N[C@H](C(=O)N[C@H](C)C(=O)O)C(C)C)[C@@H](C)O)[C@@H](C)O)C(C)C)[C@@H](C)CC)C(C)C", "note": "[R11-NLS-pep8] (HELM PEPTIDE1{[ac].R.R.R.R.R.R.R.R.R.R.R.I.K.K.K.R.K.W.E.A.S.A.L.V.C.I.R.L.V.T.S.S.K.P.R.T.V.[dA]}$$$$V2.0; C-terminus assumed)", "values": [
      {"measurement": "mice weights and well-being", "setting": "[1]", "result": "No significant changes were observed"},
      {"measurement": "organ weights (livers, spleens, lungs) at end of experiment", "setting": "[1]", "result": "No significant changes were observed"},
      {"measurement": "ED50, cell viability", "setting": "[2]", "result": 5.6, "unit": "µM"},
      {"measurement": "ED50, cell death", "setting": "[3]", "result": 4.07, "unit": "µM"},
      {"measurement": "ED50, cell viability", "setting": "[4]", "result": 7.1, "unit": "µM"},
      {"measurement": "growth suppression relative to 5-FU", "setting": "[5]; R11-NLS-pep8 5 mg/kg IV vs 5-FU IP 30 mg/kg", "result": "comparable to the effect of 5-FU"},
      {"measurement": "tumor growth suppression vs vehicle, significance on days 19 and 23", "setting": "[5]", "result": "statistically significant on days 19 and 23"},
      {"measurement": "tumor growth suppression vs vehicle, significance on day 28", "setting": "[5]", "result": "statistically non-significant difference"},
      {"measurement": "ED50, cell viability", "setting": "[6]", "result": 5.9, "unit": "µM"},
      {"measurement": "ED50, cell viability", "setting": "[7]", "result": 7.8, "unit": "µM"},
      {"measurement": "tumor growth suppression, day 23", "setting": "[8]", "result": "significantly suppressed B16 growth"},
      {"measurement": "ED50, cell death", "setting": "[9]", "result": 3.78, "unit": "µM"},
      {"measurement": "ED50, cell death", "setting": "[10]", "result": 3.94, "unit": "µM"},
      {"measurement": "inhibition of pep8 binding to PCNA", "setting": "[11]", "result": 35, "unit": "%"}
    ]},
    {"smiles": "O=c1[nH]cc(F)c(=O)[nH]1", "note": "[5-FU, reference compound]", "values": [
      {"measurement": "tumor growth suppression vs vehicle, significance on days 19 and 23", "setting": "[5]", "result": "clear yet non-significant on days 19 and 23"},
      {"measurement": "tumor growth suppression vs vehicle, significance on day 28", "setting": "[5]", "result": "significant on day 28"},
      {"measurement": "tumor growth suppression, day 23", "setting": "[8]", "result": "significantly suppressed B16 growth"}
    ]}
  ]
}
